Some test systems named below: A549 NSCLC; A498 renal; MOLT-4 leukemia; UO-31 renal; SW-620 colon; UACC-62 melanoma; KM20L2 colon; DLD-1 colon; MALME-3M melanoma; TK-10 renal; HCT-15 colon.
What all share (assay): inhibition of tumour cell growth, NCI panel, 48 h

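Method: 48-hour compound exposure of cells in 96-well plates, five concentrations, linear interpolation of endpoints. GI50 marks 50% less growth. TGI: concentration producing complete growth inhibition.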

With `C/C(=C1/N=C(c2cc([N+](=O)[O-])ccc2Cl)N(C2=CC=C(Cl)CC2)C1=O)c1cc2ccccc2oc1=O`, the TGI with A549 NSCLC, in the assay on A498 renal, in the assay with MOLT-4 leukemia, with UO-31 renal, in the assay on SW-620 colon and in the assay on UACC-62 melanoma was over 100 µM throughout. The TGI in the assay on KM20L2 colon, with DLD-1 colon and in the assay with MALME-3M melanoma was over 100 µM throughout.
For the compound `CCCCN(CCCC)c1ccc(N=Nc2ccc(S(=O)(=O)O)cc2)cc1`, the TGI was over 100 µM with A549 NSCLC; over 100 µM in the assay on TK-10 renal; over 100 µM in the assay with A498 renal; 35.2 µM in the assay with MOLT-4 leukemia; over 100 µM in the assay on UO-31 renal; over 100 µM with SW-620 colon. In addition, the TGI with UACC-62 melanoma was over 100 µM; in the assay with HCT-15 colon, 40.4 µM.
As to `CC1=CC[C@H](C)C(C)(C)C1/C=C/C(C)=C/CC[C@@]1(CO)[C@H](CCCO)/C(=C(/C)C=O)CC[C@]1(C)O` (stereo partly specified), the TGI in the assay with A549 NSCLC was 6.21 µM; in the assay on TK-10 renal it was 15.3 µM; in the assay on MOLT-4 leukemia it was 20.5 µM; in the assay on UO-31 renal it was 21.2 µM; with SW-620 colon it was 12.5 µM; in the assay on KM20L2 colon, 8.23 µM. Further, the TGI with DLD-1 colon was determined as 15.1 µM; in the assay on MALME-3M melanoma, 16.9 µM; with HCT-15 colon, 20.4 µM.
Turning to `CC(=O)/C=C/c1c[nH]c(=O)[nH]c1=O`, the TGI with A549 NSCLC was found to be 1090 µM; in the assay on A498 renal, 566 µM; in the assay with MOLT-4 leukemia, 783 µM; in the assay with UO-31 renal it was 397 µM; in the assay on SW-620 colon, 696 µM; in the assay on UACC-62 melanoma, 574 µM. Also, the TGI in the assay with KM20L2 colon amounted to 508 µM; with DLD-1 colon, 790 µM; with MALME-3M melanoma it was 444 µM; with HCT-15 colon it was 523 µM.
In the case of `Cc1cc(S(N)(=O)=O)c(S/C(=N\Nc2ccc([N+](=O)[O-])cc2)c2ccc(Cl)cc2)cc1Cl`, the TGI was 7.48 µM with A549 NSCLC; 3.54 µM in the assay on TK-10 renal; 21.8 µM in the assay on A498 renal; over 100 µM with MOLT-4 leukemia; 22 µM in the assay on UO-31 renal; over 100 µM with SW-620 colon. In addition, the values for the TGI in the assay with UACC-62 melanoma, in the assay on MALME-3M melanoma and in the assay with HCT-15 colon were 20.2 µM, 4.31 µM and 77.9 µM, respectively.
As for `O=C(COC(=O)c1ccccc1)c1ccc(Br)cc1`, the TGI in the assay on A549 NSCLC was found to be 40.5 µM; with TK-10 renal it was 10.8 µM; in the assay on A498 renal, 29.5 µM; in the assay with MOLT-4 leukemia, 15 µM; with UO-31 renal, 6.08 µM; in the assay with SW-620 colon, 21.8 µM. In addition, the TGI with UACC-62 melanoma was found to be 26.1 µM; in the assay on MALME-3M melanoma, 29.4 µM; with HCT-15 colon it was 35.1 µM.
As to `COc1cc2cnc3c(c2cc1OC)Cc1cc2c(cc1-3)OCO2`, the GI50 with A549 NSCLC was under 0.0153 µM; in the assay with TK-10 renal, under 0.01 µM; with A498 renal, under 0.0183 µM; in the assay on MOLT-4 leukemia it was under 0.01 µM; in the assay with UO-31 renal it was under 0.0193 µM; in the assay on SW-620 colon, under 0.01 µM. The GI50 in the assay with UACC-62 melanoma, in the assay on MALME-3M melanoma and in the assay with HCT-15 colon was under 0.01 µM throughout. Also, the TGI in the assay on A549 NSCLC was over 54.5 µM; in the assay on TK-10 renal it was 2.83 µM; with A498 renal, 17.8 µM; in the assay on MOLT-4 leukemia it was 0.205 µM; in the assay with UO-31 renal it was over 43.3 µM; in the assay on SW-620 colon it was over 100 µM. Also, the values for the TGI in the assay on UACC-62 melanoma, in the assay with MALME-3M melanoma and in the assay with HCT-15 colon were 35.1 µM, 74.9 µM and over 100 µM, respectively.
`O=S(=O)(O)c1ccc(N=Nc2ccc(N=Nc3ccc(/C=C/c4ccc(N=[N+]([O-])c5ccc(/C=C/c6ccc(N=Nc7ccc(N=Nc8ccc(S(=O)(=O)O)cc8)c8ccccc78)cc6S(=O)(=O)O)c(S(=O)(=O)O)c5)cc4S(=O)(=O)O)c(S(=O)(=O)O)c3)c3ccccc23)cc1`: the TGI with A549 NSCLC, in the assay with A498 renal, in the assay with MOLT-4 leukemia, with UO-31 renal, with SW-620 colon and in the assay on UACC-62 melanoma was over 100 µM throughout. Moreover, the TGI with KM20L2 colon, with DLD-1 colon, in the assay with MALME-3M melanoma and with HCT-15 colon was over 100 µM in each case.
Turning to `Nc1ccccc1Sc1ccc(Cl)cc1`, the TGI in the assay with A549 NSCLC was over 100 µM; with TK-10 renal, over 100 µM; in the assay on A498 renal, over 100 µM; with UO-31 renal, 51 µM; with SW-620 colon, over 100 µM; in the assay with UACC-62 melanoma it was over 100 µM. Moreover, the TGI with KM20L2 colon is 42.9 µM; with DLD-1 colon, over 100 µM; in the assay on MALME-3M melanoma, over 100 µM; with HCT-15 colon, over 100 µM.
As for `COc1cccc(NC(=O)N/C(=C/c2ccc(N(CCC#N)CCC#N)cc2)NC(=O)c2cc([N+](=O)[O-])ccc2Cl)c1`, the TGI in the assay with A549 NSCLC, in the assay on TK-10 renal, in the assay with MOLT-4 leukemia, in the assay with UO-31 renal, with UACC-62 melanoma and with KM20L2 colon was over 100 µM each time. Besides, the TGI in the assay with DLD-1 colon and with HCT-15 colon was over 100 µM each time.
Regarding `CNC=O`, the TGI in the assay with A549 NSCLC, in the assay with TK-10 renal, in the assay with A498 renal, in the assay with MOLT-4 leukemia, in the assay with UO-31 renal and in the assay with SW-620 colon was over 10000 µM in each case. The TGI in the assay on UACC-62 melanoma was over 9810 µM; with KM20L2 colon, over 10000 µM; with DLD-1 colon, over 10000 µM; with MALME-3M melanoma, over 10000 µM; in the assay on HCT-15 colon, over 10000 µM.

For the origin of these results see PubChem BioAssay (NCI).
